Data from ChEMBL document CHEMBL3885861, “Open TG-GATES”.

Species on record: Rattus norvegicus
Experiment: Open TG-GATES - Regimen: Single
Format: toxicity, organism-based, Sprague-Dawley
Set-up: regimen Single, gender Male, age 6 weeks
Conditions: in vivo, po, 100 mg/kg, route gavage, dose level High; for Bas / Eos / Hb / Ht / Lym / MCH / MCHC / MCV / Mono / Neu / Plat / RBC / Ret / WBC: tissue Blood; for KIDNEY_L / KIDNEY_R / KIDNEY_TOTAL: tissue Kidney; for LIVER: tissue Liver; for A/G / ALP / ALT / AST / BUN / CRE / Ca / Cl / DBIL / GLC / IP / K / LDH / Na / PL / RALB / TBIL / TC / TG / TP / gamma-GTP: tissue Plasma

**Q.** Which results are given for Cc1ccc2cc3c(ccc4ccccc43)c3c2c1CC3 [3-METHYLCHOLANTHRENE]?
**A.** TERMINAL_BW (3 h): 211 g; Bas (3 h): 0%; Eos (3 h): 1%; Hb (3 h): 12.4 g/dL; Ht (3 h): 38.7%; Lym (3 h): 74.4%; MCH (3 h): 20.1 pg; MCHC (3 h): 32.2%; MCV (3 h): 62.6 fL; Mono (3 h): 3.2%; Neu (3 h): 21%; Plat (3 h): 125.2 x10_4/uL; RBC (3 h): 618.4 x10_4/ul; Ret (3 h): 9.2%; WBC (3 h): 117.6 x10_2/uL; KIDNEY_L (3 h): 0.9 g; KIDNEY_R (3 h): 0.9 g; KIDNEY_TOTAL (3 h): 1.8 g; LIVER (3 h): 9.5 g; A/G (3 h): 1; ALP (3 h): 1507 IU/L; ALT (3 h): 44.4 IU/L; AST (3 h): 77.4 IU/L; BUN (3 h): 12.9 mg/dL; CRE (3 h): 0.1 mg/dL; Ca (3 h): 10.8 mg/dL; Cl (3 h): 101.9 meq/L; DBIL (3 h): 0.002 mg/dL; GLC (3 h): 180.4 mg/dL; IP (3 h): 8.7 mg/dL; K (3 h): 4.3 meq/L; LDH (3 h): 276.8 IU/L; Na (3 h): 139.4 meq/L; PL (3 h): 178.2 mg/dL; RALB (3 h): 2.9 g/dL; TBIL (3 h): 0.012 mg/dL; TC (3 h): 89.8 mg/dL; TG (3 h): 164.2 mg/dL; TP (3 h): 5.7 g/dL; gamma-GTP (3 h): 0.7 IU/L; TERMINAL_BW (6 h): 206.7 g; Bas (6 h): 0%; Eos (6 h): 0.2%; Hb (6 h): 12.6 g/dL; Ht (6 h): 38.9%; Lym (6 h): 75.6%; MCH (6 h): 20.6 pg; MCHC (6 h): 32.4%; MCV (6 h): 63.6 fL; Mono (6 h): 4.2%; Neu (6 h): 18.8%; Plat (6 h): 136.5 x10_4/uL; RBC (6 h): 612 x10_4/ul; Ret (6 h): 9%; WBC (6 h): 135.9 x10_2/uL; KIDNEY_L (6 h): 0.9 g; KIDNEY_R (6 h): 0.9 g; KIDNEY_TOTAL (6 h): 1.7 g; LIVER (6 h): 8.9 g; A/G (6 h): 1; ALP (6 h): 1605.4 IU/L; ALT (6 h): 37.2 IU/L; AST (6 h): 71.4 IU/L; BUN (6 h): 8.3 mg/dL; CRE (6 h): 0.1 mg/dL; Ca (6 h): 10.6 mg/dL; Cl (6 h): 104.8 meq/L; DBIL (6 h): 0.002 mg/dL; GLC (6 h): 175.4 mg/dL; IP (6 h): 9.2 mg/dL; K (6 h): 4.3 meq/L; LDH (6 h): 203.2 IU/L; Na (6 h): 141 meq/L; PL (6 h): 165.6 mg/dL; RALB (6 h): 2.9 g/dL; TBIL (6 h): 0.022 mg/dL; TC (6 h): 85.6 mg/dL; TG (6 h): 83.5 mg/dL; TP (6 h): 5.7 g/dL; gamma-GTP (6 h): 0.8 IU/L; TERMINAL_BW (9 h): 206.7 g; Bas (9 h): 0%; Eos (9 h): 0.6%; Hb (9 h): 12.7 g/dL; Ht (9 h): 39%; Lym (9 h): 75.8%; MCH (9 h): 20.6 pg; MCHC (9 h): 32.4%; MCV (9 h): 63.6 fL; Mono (9 h): 3.4%; Neu (9 h): 19.4%; Plat (9 h): 125.7 x10_4/uL; RBC (9 h): 613.8 x10_4/ul; Ret (9 h): 8.6%; WBC (9 h): 108.2 x10_2/uL; KIDNEY_L (9 h): 0.9 g; KIDNEY_R (9 h): 0.9 g; KIDNEY_TOTAL (9 h): 1.8 g; LIVER (9 h): 9 g; A/G (9 h): 1; ALP (9 h): 1396.4 IU/L; ALT (9 h): 34.4 IU/L; AST (9 h): 70.4 IU/L; BUN (9 h): 9.8 mg/dL; CRE (9 h): 0.1 mg/dL; Ca (9 h): 10.6 mg/dL; Cl (9 h): 104 meq/L; DBIL (9 h): 0.002 mg/dL; GLC (9 h): 179.4 mg/dL; IP (9 h): 10.6 mg/dL; K (9 h): 4.6 meq/L; LDH (9 h): 248.8 IU/L; Na (9 h): 142.5 meq/L; PL (9 h): 150.4 mg/dL; RALB (9 h): 2.8 g/dL; TBIL (9 h): 0.004 mg/dL; TC (9 h): 79.2 mg/dL; TG (9 h): 95 mg/dL; TP (9 h): 5.6 g/dL; gamma-GTP (9 h): 0.6 IU/L; TERMINAL_BW (24 h): 218 g; Bas (24 h): 0%; Eos (24 h): 0%; Hb (24 h): 12.8 g/dL; Ht (24 h): 39.2%; Lym (24 h): 81.2%; MCH (24 h): 20 pg; MCHC (24 h): 32.6%; MCV (24 h): 61.6 fL; Mono (24 h): 3%; Neu (24 h): 14.6%; Plat (24 h): 124.3 x10_4/uL; RBC (24 h): 636.8 x10_4/ul; Ret (24 h): 8.1%; WBC (24 h): 127.1 x10_2/uL; KIDNEY_L (24 h): 0.9 g; KIDNEY_R (24 h): 0.9 g; KIDNEY_TOTAL (24 h): 1.9 g; LIVER (24 h): 11.2 g; A/G (24 h): 1; ALP (24 h): 1595.4 IU/L; ALT (24 h): 38.6 IU/L; AST (24 h): 69.4 IU/L; BUN (24 h): 16.7 mg/dL; CRE (24 h): 0.2 mg/dL; Ca (24 h): 11 mg/dL; Cl (24 h): 103.1 meq/L; DBIL (24 h): 0.002 mg/dL; GLC (24 h): 171.4 mg/dL; IP (24 h): 7.4 mg/dL; K (24 h): 4.7 meq/L; LDH (24 h): 188.8 IU/L; Na (24 h): 141.6 meq/L; PL (24 h): 181.2 mg/dL; RALB (24 h): 2.8 g/dL; TBIL (24 h): 0 mg/dL; TC (24 h): 92 mg/dL; TG (24 h): 209.4 mg/dL; TP (24 h): 5.5 g/dL; gamma-GTP (24 h): 0.9 IU/L
